The source of these data is patent publication US5190981A, “Formulation containing S(+) enantiomer of flurbiprofen or ketoprofen and method of use for oral administration for prevention and treatment of bone loss associated with periodontal disease” (Sepracor Inc., priority 1991, dated 1993).

A short description of series [1]: Bioavailability of flurbiprofen enantiomers in toothpaste: five-way blinded crossover, blood levels over 24 h after toothbrushing, chiral HPLC. Type of series: in vivo, human (healthy adult volunteers). To be noted: for initial plasma concentrations of each enantiomer across formulations: from toothpaste formulation to toothpaste formulation; for initial plasma concentrations of each enantiomer across formulations / accumulation of enantiomers: data not shown; for accumulation of enantiomers: repeated use. An excerpt: The purpose of this study was to show how well subjects tolerated three strengths of S(+) flurbiprofen toothpaste (1%, 0.5% and 0.25%), as well as the relationship between dose and blood level of the active isomer in comparison with an identical formulation of racemic flurbiprofen (1%) or an intermediate formulation of 80% S(+) flurbiprofen and 20% R(-) flurbiprofen (1%). A toothpaste containing one of the three concentrations of S(+) flurbiprofen, the 1% intermediate formulation or 1% racemic flurbiprofen were used in the study.
The drug is an acid and, therefore, the formulation was adjusted to pH 5.6, in order to improve buccal absorption. The formulation also contained menthol or wintergreen in order to mask the slight bitter taste of the drug. Standard formulation techniques were used.
Eight healthy adult volunteers were selected as subjects for the five-way, blinded, crossover study of flurbiprofen blood levels over a 24 hour period following toothbrushing with toothpastes containing the different concentrations of S(+) flurbiprofen and R(-) flurbiprofen. Each volunteer brushed with about 1 g of a toothpaste formulation for 1 minute followed by rinsing twice daily for 3 days. On the fourth morning, brushing with 1 g of the toothpaste formulation was repeated and blood samples were collected for subsequent analysis at -0.25, 0.25, 1, 2, 4, 8, 12, 23 and 24 hours relative to this toothbrushing episode. Each treatment period was followed by a washout interval of 4 days before the next toothpaste formulation was provided.
The concentration of the individual enantiomers was determined by HPLC on chiral-APG (5μ. 100×4 mm). The mobile phase was 1% 2-propanol in 10 mM NaH2 PO4 buffer, pH 7.0, at 0.6 ml/min. The enantiomers were detected by fluorescence monitoring with excitation at 250 nm and emission at 315 nm. The individual enantiomers were detectable down to 5-10 ng/ml. Standard and calibration curves were prepared for each set of samples and an internal standard of S(+) ibuprofen was added to all samples. Pharmacokinetic calculations were non-compartmental and employed conventional data analysis (linear trapezoidal role) to determine the concentrations or total amounts for each enantiomer and formulation that were analyzed.
The results of this study are presented as follows: 1% by weight racemic flurbiprofen (1S, 1R); 1% by weight 80% S(+) flurbiprofen, 20% R(-) flurbiprofen as a eutectic mixture (2S, 2R); 1% by weight 95% S(+) flurbiprofen, 5% R(-) flurbiprofen (3S); 0.5% by weight 95% S(+) fluriprofen, 5% R(-) flurbiprofen (4S); and 0.25% by weight 95% S(+) flurbiprofen, 5% R(-) flurbiprofen (5S). It should be noted that approximately equivalent amounts (5 mg) of S(+)flurbiprofen were administered in results denoted 1S and 4S. The results from the present study have been further compared with calculations based on results from a previous study by Stalker et al. "Bioavailability of Flurbiprofen following Buccal Administration", Pharm Res. 8, 605-608 (1991). The calculated amounts of administered enantiomer in this previous study are 5 mg buccal S(+) flurbiprofen as a mouthwash (buccal S) or 5 mg PO S(+) flurbiprofen (PO S).

The conditions of series [2]: oral; cited from earlier work.

For `C[C@@H](C(=O)O)c1ccc(-c2ccccc2)c(F)c1` [R(-) flurbiprofen], the “initial plasma concentrations of each enantiomer across formulations” value in series [1] was “approximately the same”. In addition, the accumulation of enantiomers entry in series [1] (toothpaste) is given as “no accumulation”.
Take `C[C@H](C(=O)O)c1ccc(-c2ccccc2)c(F)c1` [S(+) flurbiprofen]: the “absorption of S(+) enantiomer alone vs as racemic mixture” value in series [1] (comparison of 1S and 4S, toothpaste) is “preferentially absorbed when administered alone in a toothpaste formulation than when administered as a racemic mixture”. In addition, in series [1] (equivalent amounts of S(+) flurbiprofen, e.g. 1S and 4S compared to buccal S or PO S), the “blood concentration and persistence, toothpaste vs mouthwash or PO” value was “higher and its availability is more persistent when in a toothpaste formulation”. Further, in series [1], the “initial plasma concentrations of each enantiomer across formulations” value is “approximately the same”. Moreover, the “dose relationship of plasma concentrations, 0.25% to 0.5%” value in series [1] (toothpaste between 0.25% and 0.5% by weight) is “dose dependent relationship of plasma concentrations”. Moreover, the “dose relationship of plasma concentrations at 1%” value in series [1] (toothpaste, 1% by weight) is on record as “non-linear at 1% by weight”. In series [1] (toothpaste), the accumulation of enantiomers result was “no accumulation”. Further, in series [2], the “absorption when taken orally” value is “readily absorbed”.
